In ChEMBL document CHEMBL1201862, “PubChem BioAssay data set” (2004):
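Test compounds were applied to cells in 96-well plates for 48 hours at 5 doses. GI50 is the concentration that inhibits growth by half.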 Active and inactive are the calls of the source. No stated cut-off is given here; in the data, active = GI50 up to about 1.1 µM and inactive = higher.

Tests used:
Assay in all cases: growth of human tumour cells (NCI), 48 h
OVCAR-4 = system: OVCAR-4
HT-29 = system: HT-29
OVCAR-5 = system: OVCAR-5
MOLT-4 = system: MOLT-4
HOP-92 = system: HOP-92
OVCAR-3 = system: OVCAR-3
HCC 2998 = system: HCC 2998
SN12C = system: SN12C
SK-MEL-28 = system: SK-MEL-28
COLO 205 = system: COLO 205
HL-60 = system: HL-60
KM12 = system: KM12
EKVX = system: EKVX
A498 = system: A498
ACHN = system: ACHN
A549 = system: A549
SK-MEL-5 = system: SK-MEL-5

Measured: GI50

NC(=O)c1csc(C2CCC(CO)O2)n1 (configuration not stated)
inactive: OVCAR-4 > 100 µM | HT-29 > 100 µM | OVCAR-5 > 100 µM | MOLT-4 > 100 µM | HOP-92 > 100 µM | OVCAR-3 > 100 µM | HCC 2998 > 100 µM | SN12C > 100 µM | SK-MEL-28 > 100 µM | COLO 205 > 100 µM | HL-60 > 100 µM | KM12 > 100 µM | EKVX > 100 µM | A498 > 100 µM | ACHN > 100 µM | A549 > 100 µM

C=C(C)CCN[Si](c1ccccc1)(c1ccccc1)C(C)(C)C
inactive: OVCAR-4 19 µM | HT-29 16.6 µM | MOLT-4 18.7 µM | HOP-92 18.2 µM | OVCAR-3 17.6 µM | HCC 2998 21.1 µM | SN12C 18.2 µM | SK-MEL-28 20.3 µM | COLO 205 18.5 µM | HL-60 20.1 µM | SK-MEL-5 19 µM | KM12 18.5 µM | EKVX 22.1 µM | A498 28.9 µM | ACHN 26 µM | A549 24.1 µM

CCOC(=O)C(Cc1ccccc1)NC(=O)OC(C)(C)C (configuration not stated)
inactive: HT-29 > 100 µM | OVCAR-5 > 100 µM | MOLT-4 > 100 µM | HOP-92 > 100 µM | OVCAR-3 > 100 µM | HCC 2998 > 100 µM | SN12C > 100 µM | SK-MEL-28 > 100 µM | COLO 205 > 100 µM | HL-60 > 100 µM | KM12 > 100 µM | A498 > 100 µM | ACHN > 100 µM | A549 > 100 µM

CC(C)=NNC(=S)NC12CC3CC(CC(C3)C1)C2
inactive: OVCAR-4 > 100 µM | HT-29 > 100 µM | OVCAR-5 > 100 µM | MOLT-4 > 100 µM | HOP-92 > 100 µM | OVCAR-3 > 100 µM | SN12C > 100 µM | SK-MEL-28 > 100 µM | COLO 205 > 100 µM | HL-60 > 100 µM | SK-MEL-5 > 100 µM | KM12 > 100 µM | EKVX > 100 µM | A498 > 100 µM | ACHN > 100 µM | A549 > 100 µM

CSc1cnc2ccccc2c1Sc1cn(C)c2ccccc2c1=O
inactive: OVCAR-4 34.8 µM | HT-29 58.5 µM | OVCAR-5 > 100 µM | MOLT-4 53.2 µM | HOP-92 12 µM | OVCAR-3 28.7 µM | HCC 2998 70.8 µM | SN12C 28.8 µM | SK-MEL-28 27.9 µM | COLO 205 17 µM | HL-60 16 µM | SK-MEL-5 24.4 µM | KM12 25.8 µM | EKVX 29.3 µM | A498 36.2 µM | ACHN > 100 µM | A549 8.17 µM

Cn1c2c(c3ccccc31)CCN(CCN1CCN(c3ccccc3)CC1)C2=O
inactive: HT-29 > 100 µM | MOLT-4 > 100 µM | HOP-92 31.2 µM | SN12C > 100 µM | SK-MEL-28 > 100 µM | COLO 205 > 100 µM | HL-60 > 100 µM | SK-MEL-5 61.1 µM | EKVX > 100 µM | ACHN > 100 µM | A549 > 100 µM

O=C(/C=C/c1cccc2ccccc12)c1ccccc1Cl
inactive: OVCAR-4 15.1 µM | HT-29 13.6 µM | MOLT-4 3.85 µM | HOP-92 13 µM | OVCAR-3 12.9 µM | HCC 2998 15.2 µM | SN12C > 100 µM | SK-MEL-28 19.1 µM | COLO 205 > 100 µM | HL-60 2.65 µM | SK-MEL-5 16.9 µM | KM12 8.63 µM | EKVX 15.1 µM | A498 16 µM | ACHN 17.5 µM | A549 25.8 µM

c1ccc(SC2CCSc3ccccc3C2Sc2ccccc2)cc1 (configuration not stated)
inactive: OVCAR-4 > 100 µM | HT-29 69.2 µM | MOLT-4 > 100 µM | HOP-92 18.8 µM | OVCAR-3 37 µM | HCC 2998 > 100 µM | SN12C > 100 µM | COLO 205 > 10 µM | HL-60 4.73 µM | SK-MEL-5 20.9 µM | KM12 56.1 µM | EKVX > 100 µM | A498 > 100 µM | ACHN > 100 µM | A549 > 100 µM

CC(C)(C)C[P+](C)(C)c1ccccc1
inactive: OVCAR-4 > 100 µM | HT-29 > 100 µM | OVCAR-5 76 µM | MOLT-4 > 100 µM | HOP-92 > 100 µM | OVCAR-3 91.2 µM | HCC 2998 > 100 µM | SN12C > 100 µM | SK-MEL-28 > 100 µM | COLO 205 > 100 µM | HL-60 67.1 µM | SK-MEL-5 > 100 µM | KM12 > 100 µM | EKVX > 100 µM | ACHN > 100 µM | A549 89.5 µM
